Data set [1] in a line: Kinetic solubility of the compound in NaCl solution at 25 deg C after 2 hrs by HPLC-ESI-MS/MS analysis. It is filed as physicochemical. As to conditions: read-out: Kinetic_solubility.
The target in data set [2] is T1, Ephrin type-A receptor 8 (Homo sapiens) (UniProt P29322).
T1 sequence (whole entry): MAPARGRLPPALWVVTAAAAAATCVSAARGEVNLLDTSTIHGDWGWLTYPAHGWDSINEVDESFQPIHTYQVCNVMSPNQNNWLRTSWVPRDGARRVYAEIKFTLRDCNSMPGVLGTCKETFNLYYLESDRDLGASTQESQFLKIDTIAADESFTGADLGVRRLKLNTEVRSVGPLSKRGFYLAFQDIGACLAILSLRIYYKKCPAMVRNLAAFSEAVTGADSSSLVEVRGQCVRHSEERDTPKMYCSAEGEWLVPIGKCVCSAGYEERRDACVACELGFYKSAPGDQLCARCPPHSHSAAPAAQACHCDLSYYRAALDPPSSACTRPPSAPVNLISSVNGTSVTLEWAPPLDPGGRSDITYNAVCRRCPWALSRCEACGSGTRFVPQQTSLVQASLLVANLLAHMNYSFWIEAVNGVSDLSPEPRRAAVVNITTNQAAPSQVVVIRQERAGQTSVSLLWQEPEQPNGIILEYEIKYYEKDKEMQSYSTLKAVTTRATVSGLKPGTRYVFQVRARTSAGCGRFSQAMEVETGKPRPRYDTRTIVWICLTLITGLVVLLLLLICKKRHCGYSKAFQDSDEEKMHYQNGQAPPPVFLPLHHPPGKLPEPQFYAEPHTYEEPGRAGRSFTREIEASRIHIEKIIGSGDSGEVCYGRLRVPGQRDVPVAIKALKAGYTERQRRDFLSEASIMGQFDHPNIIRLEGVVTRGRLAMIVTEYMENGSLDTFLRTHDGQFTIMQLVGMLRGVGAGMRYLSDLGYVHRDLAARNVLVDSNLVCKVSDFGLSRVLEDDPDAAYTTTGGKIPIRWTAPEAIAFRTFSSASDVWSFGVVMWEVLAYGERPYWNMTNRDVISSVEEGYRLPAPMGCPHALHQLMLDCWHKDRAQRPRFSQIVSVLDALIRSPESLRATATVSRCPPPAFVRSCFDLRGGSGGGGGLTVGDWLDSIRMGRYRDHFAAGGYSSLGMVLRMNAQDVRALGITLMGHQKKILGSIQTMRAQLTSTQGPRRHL
As to the kind of experiment: (§1) Displacement of biotinylated ephrin-A1-Fc from EphA8 (unknown origin) preincubated for 1 hr followed by biotinylated-ephrin-A1-Fc addition measured after 4 hrs by ELISA. (In an ELISA, binding on a coated surface is turned into a signal by an enzyme label.)

A further data set concerns the target T2, Ephrin type-A receptor 8 (Homo sapiens, UniProt P29322).
T2 sequence (P29322 whole entry): T1 sequence (whole entry)
Described as §1.

Data set [3] is described as follows: Tmax in mouse at 30 mg/kg, po administered as single dose by HPLC-MS analysis. The format is ADME, organism-based. To be noted: in vivo.
Data set [4] is described as follows: Metabolic stability in mouse liver S9 fractions assessed as compound remaining at 1 uM after 1 hr by HPLC-ESI-MS/MS analysis in presence of NADPH regenerating system. The format is ADME, subcellular, Liver S9 fraction. To be noted: read-out: Stability.
The target in data set [5] is T3, G-protein coupled bile acid receptor 1 (Homo sapiens) (UniProt Q8TDU6).
T3 sequence (whole entry): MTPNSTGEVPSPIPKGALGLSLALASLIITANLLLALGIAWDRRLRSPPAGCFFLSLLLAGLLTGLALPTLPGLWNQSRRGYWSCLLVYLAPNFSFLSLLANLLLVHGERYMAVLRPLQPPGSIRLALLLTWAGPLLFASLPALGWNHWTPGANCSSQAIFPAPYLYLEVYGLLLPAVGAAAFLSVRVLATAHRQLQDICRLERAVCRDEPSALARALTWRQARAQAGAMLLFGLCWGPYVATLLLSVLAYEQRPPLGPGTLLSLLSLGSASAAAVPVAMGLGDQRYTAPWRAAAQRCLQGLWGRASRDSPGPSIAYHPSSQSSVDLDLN
As to the kind of experiment: Agonist activity at TGR5 (unknown origin) assessed as cAMP level up to 30 uM. The format is functional. (In general: Changes in cAMP serve as a functional read-out for many G protein-coupled receptors.)

For data set [6], the target named is T4, Ephrin type-B receptor 4 (Homo sapiens) (UniProt P54760).
T4 sequence (whole entry): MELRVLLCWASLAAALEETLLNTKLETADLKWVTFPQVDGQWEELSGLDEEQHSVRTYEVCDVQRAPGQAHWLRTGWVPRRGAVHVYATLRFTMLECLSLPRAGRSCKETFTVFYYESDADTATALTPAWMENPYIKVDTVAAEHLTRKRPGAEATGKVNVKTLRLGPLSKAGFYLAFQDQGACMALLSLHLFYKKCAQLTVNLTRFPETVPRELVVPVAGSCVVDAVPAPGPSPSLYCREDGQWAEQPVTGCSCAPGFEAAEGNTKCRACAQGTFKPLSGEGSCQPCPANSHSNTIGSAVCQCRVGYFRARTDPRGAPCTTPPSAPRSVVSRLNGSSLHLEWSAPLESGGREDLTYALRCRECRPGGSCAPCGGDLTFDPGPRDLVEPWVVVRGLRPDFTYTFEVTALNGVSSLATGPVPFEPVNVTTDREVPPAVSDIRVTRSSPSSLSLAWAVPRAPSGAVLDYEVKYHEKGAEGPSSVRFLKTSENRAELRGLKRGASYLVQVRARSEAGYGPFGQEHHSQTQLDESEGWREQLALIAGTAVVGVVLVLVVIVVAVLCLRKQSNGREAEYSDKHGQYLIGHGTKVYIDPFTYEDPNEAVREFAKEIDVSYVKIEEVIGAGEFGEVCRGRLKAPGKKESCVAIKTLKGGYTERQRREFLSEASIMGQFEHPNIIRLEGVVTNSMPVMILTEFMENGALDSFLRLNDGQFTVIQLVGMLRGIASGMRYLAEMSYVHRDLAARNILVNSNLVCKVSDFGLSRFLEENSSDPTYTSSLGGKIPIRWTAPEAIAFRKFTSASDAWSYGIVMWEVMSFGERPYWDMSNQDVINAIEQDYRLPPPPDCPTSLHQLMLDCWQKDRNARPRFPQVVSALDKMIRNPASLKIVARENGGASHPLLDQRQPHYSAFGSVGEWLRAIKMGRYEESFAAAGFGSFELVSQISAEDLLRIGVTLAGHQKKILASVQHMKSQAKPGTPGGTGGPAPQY
The experiment in a line: Displacement of biotinylated ephrin-B1-Fc from EphB4 (unknown origin) preincubated for 1 hr followed by biotinylated-ephrin-B1-Fc addition measured after 4 hrs by ELISA.

Converted amounts (≈) assume the structure as drawn. The source made the active and inactive calls. The calls are words filed in the database; no cut-off is given here.

For orientation: IC50 means the concentration needed to halve the response being measured. Higher therefore signals weaker potency. In general, Tmax refers to the time at which the peak concentration occurs.

Turning to `C[C@H](CCC(=O)N[C@@H](Cc1c[nH]c2ccccc12)C(=O)O)[C@H]1CC[C@H]2[C@@H]3CC=C4C[C@@H](O)CC[C@]4(C)[C@H]3CC[C@]12C`, in data set [1], the solubility kinetic at 2 h was found to be 31.5 µM (≈ 17.7 µg/mL). Moreover, the inhibition entry in data set [2] and in data set [6] was “Dose-dependent effect” each time. Further, the IC50 at Ephrin type-A receptor 8 came to 3.1 µM. Besides, in data set [3], the Tmax was 30 min. Moreover, the remaining at 1 h, 1 µM in data set [4] turned out to be 70%. The outcome in data set [5] was inactive.

(Values after ChEMBL document CHEMBL3734669, “Δ(5)-Cholenoyl-amino acids as selective and orally available antagonists of the Eph-ephrin system” (Eur J Med Chem, 2015).)
